Data taken from the supplement of paper PMC10307832.

Tests used:
Experiment in all cases: relative viability (nuclei count vs DMSO), 5 days (fraction); higher = more cells survive
Sulindac + Trametinib = compound: CC1=C(CC(=O)O)c2cc(F)ccc2/C1=C\c1ccc([S+](C)[O-])cc1 [Sulindac] + CC(=O)Nc1cccc(-n2c(=O)n(C3CC3)c(=O)c3c(Nc4ccc(I)cc4F)n(C)c(=O)c(C)c32)c1 [Trametinib] (partner 0.02 µM)
In short: (§1)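 The day after seeding in 1536-well plates, lung cancer cell lines were treated by pin tool with a single drug, or with a fixed anchor-drug dose together with five library-drug doses (not always all listed) in √10 steps. After 5 days, a combined fix-and-stain solution (final 0.05% Triton X-100, 1% formaldehyde, 1 ug/ml Hoechst) was added. Nuclei counted on 4× images gave relative viability as treated counts over vehicle counts, reported as the median of duplicate plates.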

Staurosporine + AZD7762 = compound: CN[C@@H]1C[C@H]2O[C@@](C)([C@@H]1OC)n1c3ccccc3c3c4c(c5c6ccccc6n2c5c31)C(=O)NC4 [Staurosporine] + NC(=O)Nc1cc(-c2cccc(F)c2)sc1C(=O)N[C@H]1CCCNC1 [AZD7762] (partner 0.2 µM)
In short: as §1

Sulindac + Pemetrexed = compound: CC1=C(CC(=O)O)c2cc(F)ccc2/C1=C\c1ccc([S+](C)[O-])cc1 [Sulindac] + Nc1nc2[nH]cc(CCc3ccc(C(=O)N[C@@H](CCC(=O)O)C(=O)O)cc3)c2c(=O)[nH]1 [Pemetrexed] (partner 0.2 µM)
In short: as §1

[1] = compound: CN[C@@H]1C[C@H]2O[C@@](C)([C@@H]1OC)n1c3ccccc3c3c4c(c5c6ccccc6n2c5c31)C(=O)NC4 [Staurosporine] + CCNC(=O)c1noc(-c2cc(C(C)C)c(O)cc2O)c1-c1ccc(CN2CCOCC2)cc1 [Luminespib] (partner 0.01 µM)
In short: as §1

Cell Line | relative viability (Sulindac + Trametinib; first compound 0.08 µM) | relative viability (Sulindac + Trametinib; first compound 0.253 µM) | relative viability (Sulindac + Trametinib; first compound 0.8 µM) | relative viability (Sulindac + Trametinib; first compound 2.53 µM) | relative viability (Sulindac + Trametinib; first compound 8 µM) | relative viability (Staurosporine + AZD7762; first compound 0.005 µM) | relative viability (Staurosporine + AZD7762; first compound 0.05 µM) | relative viability (Staurosporine + AZD7762; first compound 0.1581 µM) | relative viability (Staurosporine + AZD7762; first compound 0.5 µM) | relative viability (Sulindac + Pemetrexed; first compound 0.08 µM) | relative viability (Sulindac + Pemetrexed; first compound 0.253 µM) | relative viability (Sulindac + Pemetrexed; first compound 0.8 µM) | relative viability (Sulindac + Pemetrexed; first compound 2.53 µM) | relative viability (Sulindac + Pemetrexed; first compound 8 µM) | relative viability ([1]; first compound 0.005 µM) | relative viability ([1]; first compound 0.05 µM) | relative viability ([1]; first compound 0.1581 µM) | relative viability ([1]; first compound 0.5 µM) | relative viability (Staurosporine + AZD7762; first compound 0.01581 µM) | relative viability ([1]; first compound 0.01581 µM)
HCC-15 | 0.415 | 0.395 | 0.375 | 0.347 | 0.283 | 1.28 | 1.22 | 0.736 | 0.302 | 0.213 | 0.223 | 0.209 | 0.22 | 0.235 | 0.303 | 0.219 | 0.169 | 0.165 |  | 
H3255 | 0.635 | 0.661 | 0.509 | 0.699 | 0.656 | 0.658 | 0.324 | 0.204 | 0.126 | 0.592 | 0.573 | 0.549 | 0.567 | 0.568 | 0.771 | 0.44 | 0.266 | 0.212 | 0.474 | 0.513
NCI-H1915 | 0.303 | 0.307 | 0.246 | 0.302 | 0.303 | 0.707 | 0.346 | 0.21 | 0.09 | 0.602 | 0.53 | 0.492 | 0.475 | 0.53 | 0.824 | 0.207 | 0.105 | 0.0895 | 0.495 | 0.247
NCI-H650 | 1.03 | 1.03 | 0.955 | 1 | 1.07 | 0.432 | 0.273 | 0.227 | 0.306 | 1 | 0.88 | 0.845 | 0.932 | 1.09 | 0.474 | 0.235 | 0.11 | 0.092 | 0.304 | 0.248
NCI-H2126 | 0.674 | 0.568 | 0.553 | 0.51 | 0.619 | 0.914 | 0.673 | 0.268 | 0.27 | 0.774 | 0.68 | 0.658 | 0.692 | 0.699 | 0.547 | 0.252 | 0.207 | 0.207 | 0.622 | 0.318
NCI-H838 | 0.608 | 0.559 | 0.456 | 0.527 | 0.584 | 0.776 | 0.643 | 0.693 | 0.675 | 0.248 | 0.255 | 0.233 | 0.24 | 0.258 | 0.247 | 0.138 | 0.107 | 0.113 | 0.644 | 0.135
NCI-H2342 | 0.829 | 0.81 | 0.721 | 0.826 | 0.825 | 0.642 | 0.373 | 0.335 | 0.328 | 0.742 | 0.714 | 0.739 | 0.746 | 0.781 | 0.843 | 0.49 | 0.47 | 0.334 | 0.412 | 0.69
EMC-BAC-2 | 1.03 | 0.917 | 0.794 | 0.794 | 0.994 | 0.352 | 0.203 | 0.262 | 0.192 | 0.429 | 0.441 | 0.408 | 0.451 | 0.466 | 0.844 | 0.24 | 0.216 | 0.211 | 0.215 | 0.33
NCI-H1355 | 0.389 | 0.462 | 0.312 | 0.43 | 0.42 | 0.713 | 0.237 | 0.214 | 0.148 | 1.02 | 1.05 | 0.965 | 1.02 | 1.13 | 0.591 | 0.212 | 0.209 | 0.191 | 0.294 | 0.278
NCI-H2347 | 0.279 | 0.272 | 0.297 | 0.258 | 0.271 | 0.459 | 0.374 |  | 0.224 | 0.429 | 0.394 |  | 0.461 | 0.414 | 0.4 | 0.216 | 0.228 | 0.263 | 0.264 | 0.262
NCI-H1651 | 0.797 | 0.844 | 0.733 | 0.801 | 0.845 | 0.522 | 0.295 | 0.219 | 0.195 | 0.766 | 0.626 | 0.581 | 0.569 | 0.613 | 0.793 | 0.459 | 0.173 | 0.116 | 0.352 | 0.614
NCI-H1993 | 0.472 | 0.569 | 0.453 | 0.444 | 0.585 | 0.676 | 0.407 | 0.331 | 0.296 | 0.704 | 0.575 | 0.648 | 0.638 | 0.551 | 0.75 | 0.51 | 0.494 | 0.303 | 0.39 | 0.532
HCC-44 | 1.11 | 1.13 | 0.969 | 1.26 | 1.02 | 0.999 | 0.911 | 0.565 | 0.307 | 0.663 | 0.695 | 0.667 | 0.632 | 0.646 | 0.416 | 0.161 | 0.187 | 0.137 |  | 0.169
LOU-NH91 | 0.771 | 0.826 | 0.687 | 0.785 | 0.836 | 0.555 | 0.395 | 0.254 | 0.247 | 0.305 | 0.358 | 0.413 | 0.423 | 0.374 | 0.355 | 0.209 | 0.289 | 0.212 | 0.341 | 0.279
NCI-H1975 | 0.382 | 0.38 | 0.36 | 0.356 | 0.367 | 0.536 | 0.357 | 0.261 | 0.182 | 0.316 | 0.297 | 0.245 | 0.304 | 0.313 | 0.159 | 0.131 | 0.169 | 0.146 | 0.402 | 0.155
